Test results reported in US20170258722A1, “ENCAPSULATING LIPOSOMES” (priority 2012, published 2017).

Procedure: Chloroform was removed by flash evaporation and the lipid mixture was dissolved in 1 ml of warm tert-butanol (also referred to as t-butanol). The tert-butanol solution of lipid was then frozen rapidly by immersing the tube in a mixture of isopropanol and dry ice. […] The excess sulfuric acid was then neutralized by adding an appropriate volume of 5 M sodium hydroxide alone or with phosphate buffer. […] After drug loading, the mixture was diluted with 0.9% w/v sodium chloride and sedimented in an ultracentrifuge for 1 hour at 30,000×g. The supernatant was carefully removed and the pellet was re-suspended in a small volume of 0.9% w/v NaCl.
First, DPPC/cholesterol films were lyophilized from t-butanol-treated lipid films. […] Liposomes were sedimented by centrifugation at 30,000 rpm for 0.5 hour to remove any unencapsulated drug.
To measure the encapsulated contents of the liposomes, the liposomes were washed in 0.9% NaCl solution and solubilized with 1:3:1 NaCl:methanol:chloroform.

SMILES: CCN(CC)CCCC(C)Nc1ccnc2cc(Cl)ccc12 (centres unmarked) [chloroquine]
- Drug Loading (% of Added) (Table 2, DPPC:Cholesterol 2:1 liposomes, 0.375M sulfuric acid, phosphate buffered loading): 100 % of Added
- loaded using the acid loading methodology (sulfuric acid 0.375 M, 6 mg buprenorphine, 33 mg chloroquine added): 100%
